± gives the uncertainty stated by the source.
Experiment: xn = mol fraction of the nth substance listed

C1=C[C@H]2[C@@H](C1)[C@H]1C=C[C@@H]2C1 + CCCCCO
viscosity [mPa·s], 101.2 kPa
Conditions	x1 = 0.1058	x1 = 0.1953	x1 = 0.3	x1 = 0.4005	x1 = 0.498	x1 = 0.5999	x1 = 0.7018	x1 = 0.8009	x1 = 0.8999
293.15 K	3.719 ± 0.18	3.558 ± 0.16	3.422 ± 0.16	3.307 ± 0.15	3.279 ± 0.15	3.283 ± 0.16	3.368 ± 0.16	3.522 ± 0.18	3.876 ± 0.22
303.15 K	2.86 ± 0.13	2.734 ± 0.13	2.63 ± 0.12	2.569 ± 0.12	2.547 ± 0.12	2.575 ± 0.12	2.648 ± 0.13	2.784 ± 0.14	3.037 ± 0.17
313.15 K	2.201 ± 0.1	2.126 ± 0.097	2.062 ± 0.095	2.032 ± 0.094	2.035 ± 0.095	2.075 ± 0.099	2.14 ± 0.11	2.259 ± 0.12	2.466 ± 0.14

C1COCCO1 + CCCO
viscosity [mPa·s]
Conditions	298.15 K	303.15 K	308.15 K	313.15 K
101 kPa, x1 = 0.4	1.131 ± 0.028	–	–	–
101.3 kPa, x1 = 0.0923	1.609 ± 0.039	1.42 ± 0.035	1.289 ± 0.032	1.179 ± 0.029
101.3 kPa, x1 = 0.122	1.499 ± 0.037	1.332 ± 0.033	1.209 ± 0.03	1.1 ± 0.027
101.3 kPa, x1 = 0.2236	1.284 ± 0.032	1.15 ± 0.029	1.057 ± 0.026	0.9732 ± 0.025
101.3 kPa, x1 = 0.2793	1.223 ± 0.03	1.084 ± 0.027	0.9926 ± 0.025	0.9135 ± 0.023
101.3 kPa, x1 = 0.3323	1.158 ± 0.029	1.065 ± 0.027	0.9698 ± 0.025	0.8894 ± 0.023
101.3 kPa, x1 = 0.3964	1.106 ± 0.027	1.014 ± 0.025	0.9229 ± 0.024	0.8503 ± 0.022
101.3 kPa, x1 = 0.4347	1.057 ± 0.026	0.9719 ± 0.025	0.8966 ± 0.023	0.8243 ± 0.021
101.3 kPa, x1 = 0.5294	1.04 ± 0.026	0.9553 ± 0.024	0.8788 ± 0.023	0.8135 ± 0.021
101.3 kPa, x1 = 0.5833	1.028 ± 0.026	0.949 ± 0.024	0.8777 ± 0.023	0.8149 ± 0.021
101.3 kPa, x1 = 0.6365	1.028 ± 0.026	0.9503 ± 0.024	0.8792 ± 0.023	0.8185 ± 0.021
101.3 kPa, x1 = 0.6538	1.033 ± 0.026	0.9567 ± 0.024	0.8791 ± 0.023	0.8196 ± 0.021
101.3 kPa, x1 = 0.7379	1.051 ± 0.026	0.9745 ± 0.025	0.9054 ± 0.023	0.8374 ± 0.022
101.3 kPa, x1 = 0.8132	1.085 ± 0.027	0.9921 ± 0.025	0.9184 ± 0.023	0.8578 ± 0.022
101.3 kPa, x1 = 0.8989	1.117 ± 0.028	1.028 ± 0.026	0.9533 ± 0.024	0.887 ± 0.023

C=CC[P+](c1ccccc1)(c1ccccc1)c1ccccc1.[Br-] + OCCOCCOCCO
viscosity [mPa·s], 100 kPa
Conditions	293.15 K	298.15 K	303.15 K	308.15 K	313.15 K	318.15 K	323.15 K
x1 = 0.05879	76.63 ± 2.9	57.94 ± 1.9	44.82 ± 1.5	35.26 ± 1.1	28.28 ± 0.88	22.99 ± 0.7	18.97 ± 0.56
x1 = 0.0909	95.29 ± 5.9	71.69 ± 4	54.83 ± 2.8	42.76 ± 2.1	33.94 ± 1.6	27.41 ± 1.2	22.42 ± 0.93
x1 = 0.2	233.7 ± 14	166.5 ± 8.3	121.6 ± 5.2	90.91 ± 3.3	69.36 ± 2.3	53.99 ± 1.6	42.73 ± 1.3

Brc1ccccc1 + ClC(Cl)(Cl)Cl
Conditions	viscosity [mPa·s]
298 K, 101.3 kPa, x2 = 0.1709	1.035 ± 0.013
298 K, 101.3 kPa, x2 = 0.3202	1.011 ± 0.012
298 K, 101.3 kPa, x2 = 0.5187	0.971 ± 0.011
298 K, 101.3 kPa, x2 = 0.6674	0.942 ± 0.01
298 K, 101.3 kPa, x2 = 0.8522	0.915 ± 0.009
303.15 K, 101 kPa, x1 = 0.092	0.727 ± 0.013
303.15 K, 101 kPa, x1 = 0.187	0.653 ± 0.011
303.15 K, 101 kPa, x1 = 0.283	0.624 ± 0.011
303.15 K, 101 kPa, x1 = 0.38	0.595 ± 0.011
303.15 K, 101 kPa, x1 = 0.479	0.619 ± 0.011
303.15 K, 101 kPa, x1 = 0.58	0.656 ± 0.012
303.15 K, 101 kPa, x1 = 0.682	0.7 ± 0.012
303.15 K, 101 kPa, x1 = 0.787	0.778 ± 0.013
303.15 K, 101 kPa, x1 = 0.892	0.881 ± 0.015
318 K, 101.3 kPa, x2 = 0.1581	0.8313 ± 0.03
318 K, 101.3 kPa, x2 = 0.3169	0.8147 ± 0.029
318 K, 101.3 kPa, x2 = 0.5212	0.7898 ± 0.029
318 K, 101.3 kPa, x2 = 0.6657	0.7758 ± 0.028
318 K, 101.3 kPa, x2 = 0.8618	0.76 ± 0.028

FB(F)F + COc1ccccc1
viscosity [mPa·s], 101 kPa
Conditions	293.15 K	298.15 K	303.15 K
x1 = 0.00791	1.08 ± 0.04	1 ± 0.04	0.93 ± 0.04
x1 = 0.08794	1.18 ± 0.05	1.08 ± 0.04	0.99 ± 0.04
x1 = 0.1573	1.27 ± 0.05	1.16 ± 0.05	1.06 ± 0.04
x1 = 0.2443	1.62 ± 0.07	1.46 ± 0.06	1.35 ± 0.05
x1 = 0.3211	2.23 ± 0.09	2.02 ± 0.08	1.81 ± 0.07
x1 = 0.3634	2.66 ± 0.11	2.39 ± 0.1	2.13 ± 0.09
x1 = 0.3926	3.04 ± 0.12	2.69 ± 0.11	2.4 ± 0.1
x1 = 0.419	3.46 ± 0.14	3.04 ± 0.12	2.67 ± 0.11
x1 = 0.4457	3.95 ± 0.16	3.45 ± 0.14	3.04 ± 0.12
x1 = 0.4544	4.19 ± 0.17	3.62 ± 0.15	3.15 ± 0.13
x1 = 0.4895	4.98 ± 0.2	4.31 ± 0.17	3.73 ± 0.15
